US20210128675A1, “LHRH-PACLITAXEL CONJUGATES AND METHODS OF USE” (priority 2019, published 2021)
“Also recorded” adds a separate entry of the source.

Tests used:
[1] = test system: knocked down LHRH receptors of breast cancer cells; test: alamar blue reduction after siRNA knockdown of LHRH receptors; type: cell-based, human; details: cells treated with siRNAs; 5 μM; 24, 48 and 72 hours
[2] = test system: MDA-MB-231 human triple negative breast cancer cells xenograft; test: subcutaneous xenograft tumor shrinkage study; type: in vivo, Athymic Nude-Foxn1nu strain mice; details: for tumor volume, 21-day group: after about two weeks, mean volume before treatment 98 mm^3; for xenograft tumor size, 28-day group: two weeks of drug administration, mean volume before treatment 230 mm^3; for tumor outcome, early stage (day 14 group): 10 mg/kg
Description: In this section, cell culture, tumor induction and drug injection studies were carried out. First, 20 μl of 1×10^6 MDA-MB-231 human triple negative cancer cells were cultured in T75 tissue culture flasks (CELLTREAT, Pepperell, Mass., USA). This was carried out at 37° C. until 70% confluence was reached. The cells were grown under normal atmospheric pressure levels in a “L15′ medium” that is typically made up of: L-15 medium (ATCC, Manassas, Va., USA), supplemented with 100 I.U./ml penicillin/100 µg/ml streptomycin and 10% FBS (ATCC, Manassas, Va., USA).
Forty 4-weekold Athymic Nude-FoxnInu strain mice with individual weights of ˜17 g each was purchase from Envigo (Somerset, N.J., USA). These animals were approved for use in the current work by the University of Massachusetts Medical School Institutional Animal Care and Use Committee (UMMS IACUC) with docket #A2630-17. All of the animals were maintained and used according to the approved UMMS IACUC procedure and guideline.
Subcutaneous tumor xenografts were induced by the injection of 5.0×10^6 of MDA-MB-231 human triple negative breast cancer cells (suspended in sterile saline) into the interscapular region (for a better angiogenic response). Tumor formation was carefully assessed by palpation. Tumor growth was then monitored daily with the digital calipers. The tumor volume was calculated using the following modified ellipsoidal formula: […]
where length was the longest axis of the tumor and width is the measurement at a right angle to the length.
The mice were randomly chosen in groups of three (for each drugs injection) into their respective treatment groups. These include groups of mice with early stage (14 days after tumor induction), mid stage (21 days after tumor induction) and late stage (28 days after tumor induction) tumors. The weights of the mice and their tumor sizes were monitored and measured (using digital calipers) on a daily basis. These precise volumes and measured weights of the mice were used to guide the administration of the drugs. They were also used to monitor toxicity and side effects associated with the drugs. For each of the study groups, 3 mice each were randomly assigned to injection of 10 mg/kg of the specific drug configuration (PTX, [D-Lys6]LHRH-conjugated PTX and DMSO).
Different groups of mice were injected intravenously with each drug through their tail veins. This was done after tumor growth for 14, 21 and 28 days. The mice were injected with 10 mg/kg per week, during the two-week periods in which the effects of drugs were investigated. Following each drug administration, the tumor sizes were monitored with calipers on a daily basis (every 24 hours). In this way, the possible tumor shrinkage, growth or elimination, were monitored on a daily basis. Furthermore, the health status of the mice was monitored on a daily basis. This was done by monitoring the mice for signs of weight loss or altered motor ability in their cages. At the end of study, the mice were euthanized, following the approved IACUC guidelines and procedures. Thereafter, tumor tissues were excised from all of the mice, including tissues from their major organs (kidneys, spleen, liver and lungs).

MDA MB 231 cells = test: alamar blue cell viability and cytotoxicity assay; type: cell-based, human
Description: The alamar blue cell viability and cytotoxicity assay was used to study the MDA MB 231 cells lines in the log phase of growth. MDA MB 231 cells were harvested with trypsin-EDTA in the presence of Dulbecco Phosphate Buffer (DPBS). 10^4 cells/well were then seeded in 12-well plates in L15+ medium (L15 medium with cell medium supplement of FBS and penicillin/streptomycin). After a 3-hour attachment period (of the cells), respective concentrations of 15 μM, 25 μM and 30 μM of paclitaxel, LRH-conjugated paclitaxel (of Example 1) and DMSO (in culture medium) were added to the 12-well plates consisting of 10^4 cells. Cell viability was monitored using the alamar blue cell viability and cytotoxicity reagent (Thermo Fisher Scientific, Waltham, Mass., USA) at times of 0 h, 18 h, 24 h, 48 h and 72 h, following drug addition. At each time point, the culture medium was replaced with 1 ml of 10% alamar blue solution (in culture medium). The 12-well plates were then incubated at 37° C. for different durations. After each time point, 100 µl of the solution incubated with alamar blue solution (ABS) was transferred into triplicate wells of a black opaque 96-well plate (Thermo Fisher Scientific, Waltham, Mass., USA).
The fluorescence intensities of the cell medium supernatant incubated with ABS were measured at 544 nm excitation and 590 nm emission using a 1420 Victor3 multi-label plate reader (Perkin Elmer, Waltham, Mass., USA). The percentage of alamar blue reduction, the percentage difference in cell population between the treated and untreated cells, and the percentage of cell growth inhibition, were determined using a combination of the ABS and cell viability studies. […]
where, FIsample=fluorescence intensity of the (treated or untreated) cells, FI10% AB=fluorescence intensity of 10% alamar blue reagent (negative control) and FI10% R=fluorescence intensity of 100% reduced alamar blue (positive control).
FItreated=fluorescence intensity of treated cells and FIcells=fluorescence intensity of untreated cells

[3] = test system: triple negative breast tumor; test: drug-tissue adhesion study (drug-coated AFM tip); type: binding, mice
Description: In an effort to understand the specificity in the targeting of triple negative breast cancer via the receptors that are over-expressed on the tumor, adhesion measurements were carried out on the control xenograft tissue samples at different stages of tumor development. Adhesion forces and interactions (between the different drug molecules and receptors on the surfaces of the tumor tissues at different stages of development) were explored in an effort to understand the interactions of the drugs with the tumor and non-tumor tissue.
Antigen retrieval was carried out on the fixed tissue. This involved exposing target antigens to receptors on a […] thick microtome tissue slice. These sliced tissues were prepared for adhesion measurements in an Asylum MFP3D-Bio Atomic Force Microscope (AFM) (Asylum Research, Oxford Instrument, CA, USA). The AFM tips RESP-20 AFM tip (Bruker Santa Barbara, Calif., USA) were dip-coated with paclitaxel or [D-Lys6]LHRH-conjugated paclitaxel using the techniques described in Obayemi et al. (J. Mech. Behav. Biomed. Mater., 68 (2017), pp. 276-286).
A simple AFM tip dip-coating technique (J. D. Obayemi et al. Materials Science and Engineering C. 66, (2016), 51-65, Hampp, E. et al. Res. 27 (22), 2891, Hutter, J. L. et al. Instrum. 64, 1868) (of the drugs) was used to coat the AFM tips at room-temperature (˜23° C.). In addition, a positive control of LHRH peptides was coated onto the AFM tips and used to determine the adhesion forces between the receptors on breast cancer tissue. All of the coated AFM tips were air-dried for about 6 h and kept in a desiccator overnight before the adhesion measurements.
The spring constants of the coated and uncoated AFM tips were measured experimentally using the thermal tune method (J.D. Obayemi, et al. Mater., 68 (2017), 276-286). This was done to obtain the actual spring constants that were used to calculate the pull-off forces from Hooke's law. The adhesion interactions were measured for the following configurations of coatings on the AFM tips and breast cancer tumor at different stages on the mice: […]

MDA-MB-231 cells = test: confocal fluorescence imaging of cellular uptake and cytotoxicity; type: cell-based, human; details: 30 μM, 6 hours
[4] = histopathological and toxicity studies; details: 10 mg/kg weekly for two weeks; for qualitative toxicity (mortality, body weight, clinical signs): tumor-bearing mice
Description: Double doses of 10 mg/kg of PTX and PTX-[D-Lys6]LHRH were then administered (on a weekly basis for two weeks) to female athymic nude mice that were subcutaneously-induced with TNBC. In this way, qualitative toxicity was studied by considering differences in mortality, changes in body weight, clinical signs, gross observations and the histopathology of the lungs, kidneys and the liver at different stages of tumor development. This was done for the different drugs and cancer treatment durations. Daily observations and weight measurements were also used to check for possible animal reactions to the drugs, physiological changes, weight loss/gain, and the general well-being of the mice.
Hematoxylin and eosin (H and E) staining was also carried out. This was used for the identification of tumor necrosis and the examination of histologic changes that occurred in vital organs, following the administration of the drugs. Briefly, formalin-fixed, paraffin-embedded tissue/organs (tumor, kidneys, liver and lungs) samples (5 m) were injected with PTX, [D-Lys6]LHRH-conjugated PTX drugs and DMSO. These were hydrated by passing them through decreasing concentrations (100, 90 &70%) of alcohol baths and water.
The hydrated tissue sections were then stained in hematoxylin solution for 5 mins. This was followed by rinsing with tap water for 3 minutes and differentiation in 1% acid alcohol for 5 minutes. Tap water was then used to rinse (three times) before dipping the sections in ammonia water for 2 minutes. This was followed by staining with eosin for 10 mins. The treated sliced samples were dehydrated in solution with increasing concentrations of alcohols followed by xylene. Finally, a few drops of Permount Mounting Medium were used to mount the resulting samples. The stained slides were then imaged with a 20× objective lens using a TS100F Nikon microscope (Nikon Instruments Inc., Melville, N.Y., USA) coupled with a DS-Fi3 C camera.

[5] = 10 mg/kg per week IV, two weeks

CC(=O)O[C@H]1C(=O)[C@@]2(C)[C@H]([C@H](OC(=O)c3ccccc3)[C@]3(O)C[C@H](OC(=O)[C@H](O)[C@@H](NC(=O)c4ccccc4)c4ccccc4)C(C)=C1C3(C)C)[C@]1(OC(C)=O)CO[C@@H]1C[C@@H]2O [PTX, paclitaxel]
cell viability, PTX versus LHRH-conjugated PTX [1]: no significant differences in cell viability | tumor volume, 21-day group ([2]; 10 mg/kg per week IV): 86.83 mm^3 | final tumor sizes, day 14 group ([2]; two IV injections (one per week) of 10 mg/kg, mean volume before treatment 67 mm^3): ~49.1 mm^3 | xenograft tumor size, 28-day group ([2]; 10 mg/kg per week IV): 299.2 mm^3

LHRH-PTX
cell viability, PTX versus LHRH-conjugated PTX [1]: no significant differences in cell viability | percentage cell growth inhibition (MDA MB 231 cells; 15 μM, 25 μM, and 30 μM, 72 h): effective at inhibiting the growth of MDA MB 231 cells | cytotoxicity on coincubation with LHRH (MDA MB 231 cells; coincubation of LHRH, 72 h): decreased the cytoxicity | cell viability (percentage alamar blue reduction) compared with unconjugated drug (MDA MB 231 cells; without siRNA, 18, 24, 48 and 72 h): significantly reduced cell viability than the unconjugated drugs | adhesion force relative to unconjugated PTX, early stage tumor [3]: nearly three times | adhesion force relative to unconjugated PTX, late stage tumor [3]: about 2 times | adhesion force relative to unconjugated PTX, mid stage tumor [3]: more than three times | tumor outcome, mid- and late-stage tumors (21 and 28 days) ([2]; 10 mg/kg IV): significant shrinkage | decrease in xenograft volume compared to unconjugated PTX, 21-day group [2, 5]: 91% | percentage reduction in xenograft tumor volume compared to unconjugated PTX, 28-day group [2, 5]: 90.2% | structural changes in tumor cells/tissue (TEM) ([2]; 21-day and 28-day treatment groups): greater structural changes | tumor volume, 21-day group ([2]; 10 mg/kg per week IV): 7.76 mm^3 | necrosis in tumor tissue (H&E) ([2]; compared with unconjugated PTX): higher levels of necrosis in the tumors | tumor outcome, early stage (day 14 group) ([2]; two IV injections (one per week) of 10 mg/kg, listed as LHRH-conjugated paclitaxel): elimination of early stage breast tumors | tumor outcome, early stage (day 14 group) ([2]; two IV injections (one per week) of 10 mg/kg, listed as [D-Lys6]LHRH-conjugated PTX): eliminated | tumor outcome, early stage (day 14 group) ([2]; two IV injections (one per week) of 10 mg/kg, listed as [D-Lys6]LHRH-conjugated paclitaxel): eliminated the tumors | xenograft tumor size, 28-day group ([2]; 10 mg/kg per week IV): 29.4 mm^3 | disruption of actin filaments, vinculin structures and cell membranes (MDA-MB-231 cells): more evident | qualitative toxicity (mortality, body weight, clinical signs) [4]: No clinical signs, differences in mortality, or changes in body weight | qualitative toxicity (mortality, body weight, clinical signs) ([4]; listed as [D-Lys6]LHRH-conjugated paclitaxel): without any evidence of toxicity | histopathology of liver, lung and kidneys (H&E) ([4]; listed as [D-Lys6]LHRH-conjugated PTX): no significant histological or significant pathological changes; also recorded: no evidence of liver cell hyaline degeneration and necrosis, and no pulmonary edema or hyperplasia observed in the lungs
